Measured values as given in US10334851B2, “Herbicidal isoxazolo[5,4-B]pyridines” (BASF SE, priority 2010, dated 2019).

Legend:
Type in all cases: in vivo
Abutilon theophrasti = assay: Greenhouse post-emergence treatment of Abutilon theophrasti (velvetleaf); settings: scale 0 (no damage) to 100 (complete destruction); for pest or weed control at 2000 g/ha / pest or weed control at 3000 g/ha: Abutilon theophrasti
Excerpt: (§1) The seeds of the test plants were sown separately for each species. For the post-emergence treatment, the test plants were first grown to a height of 3 to 15 cm, depending on the plant habit, and only then treated with the active ingredients which had been suspended or emulsified in water. For this purpose, the test plants were either sown directly and grown in the same containers, or they were first grown separately as seedlings and transplanted into the test containers a few days prior to treatment. Depending on the species, the plants were kept at 10-25° C. or 20-35° C. The test period extended over 2 to 4 weeks. During this time, the plants were tended, and their response to the individual treatments was evaluated. Evaluation was carried out using a scale from 0 to 100. 100 means no emergence of the plants, or complete destruction of at least the aerial moieties, and 0 means no damage, or normal course of growth. A good herbicidal activity is given at values of at least 80 and a very good herbicidal activity is given at values of at least 90. The plants used in the greenhouse experiments belonged to the following species: [table]

Setaria faberi = assay: Greenhouse post-emergence treatment of Setaria faberi (giant foxtail); settings: for pest or weed control at 2000 g/ha / pest or weed control at 3000 g/ha: scale 0 to 100, read-out: damage; for damage: scale 0 to 100
Excerpt: as §1

Polygonum convolvulus = assay: Greenhouse post-emergence treatment of Polygonum convolvulus (wild buckwheat); settings: application rate 1.0 kg/ha, scale 0 to 100
Excerpt: as §1

Chenopodium album = assay: Greenhouse post-emergence treatment of Chenopodium album (fat-hen); settings: application rate 1.0 kg/ha; for pest or weed control at 1000 g/ha: scale 0 to 100, read-out: damage; for damage: scale 0 to 100
Excerpt: as §1

Avena fatua = assay: Greenhouse post-emergence treatment of Avena fatua (spring-wild oat); settings: scale 0 (no damage) to 100 (complete destruction)
Excerpt: as §1

Matricaria inodora = assay: Greenhouse post-emergence treatment of Matricaria inodora (horse daisy); settings: application rate 2.0 kg/ha, scale 0 (no damage) to 100 (complete destruction)
Excerpt: as §1

Agrostis stolonifera L. = assay: Greenhouse post-emergence treatment of Agrostis stolonifera L. (white bent); settings: application rate 2.0 kg/ha, scale 0 (no damage) to 100 (complete destruction)
Excerpt: as §1

Lolium multiflorum = assay: Greenhouse post-emergence treatment of Lolium multiflorum (italian ryegrass); settings: application rate 1.0 kg/ha, scale 0 (no damage) to 100 (complete destruction)
Excerpt: as §1

Alopecurus myosuroides = assay: Greenhouse post-emergence treatment of Alopecurus myosuroides (blackgrass); settings: application rate 1.0 kg/ha, scale 0 (no damage) to 100 (complete destruction)
Excerpt: as §1

[1] = tested on: Amaranthus retroflexus L.; assay: Greenhouse post-emergence treatment of Amaranthus retroflexus L. (pigweed); settings: application rate 1.0 kg/ha, scale 0 to 100
Excerpt: as §1

## CC1CC1c1noc2nc(C3CC3)cc(C(=O)O)c12 (stereo not drawn) [I.2.13]
Abutilon theophrasti; application rate 2.0 kg/ha
  pest or weed control at 2000 g/ha: 100%
Setaria faberi; application rate 2.0 kg/ha
  pest or weed control at 2000 g/ha: 95%

## CC(C)c1noc2nc(C3(F)CC3)cc(C(=O)O)c12 [I.7.67]
Polygonum convolvulus
  damage: 100%
Chenopodium album
  pest or weed control at 1000 g/ha: 100%

## CCOC(=O)c1cc(C2CC2)nc2onc(C)c12 [I.1.63]
Avena fatua; application rate 3.0 kg/ha
  damage: 80%

## O=C(O)c1cc(C2CC2)nc2onc(-c3ccccc3Br)c12 [I.2.59]
Polygonum convolvulus
  damage: 90%
Chenopodium album
  damage: 95%

## CC(C)(C)Cc1noc2nc(C3CC3)cc(C(=O)O)c12 [I.2.2]
Abutilon theophrasti; application rate 2.0 kg/ha
  damage: 100%
Setaria faberi; application rate 2.0 kg/ha
  damage: 90%

## CCCc1noc2nc(C3CC3)cc(C(=O)O)c12 [I.2.3]
Abutilon theophrasti; application rate 3.0 kg/ha
  damage: 100%
Setaria faberi; application rate 3.0 kg/ha
  damage: 85%

## CCOC(=O)C1=C(COC(=O)c2cc(C3CC3)nc3onc(C)c23)NC(=O)NC1 [I.1.2]
Matricaria inodora
  damage: 90%

## COc1ccc(-c2nc(COC(=O)c3cc(C4CC4)nc4onc(C)c34)co2)cc1 [I.1.31]
Agrostis stolonifera L.
  damage: 85%
Matricaria inodora
  damage: 95%

## Cc1noc2nc(C3CC3)cc(C(=O)OCC#N)c12 [I.1.6]
Abutilon theophrasti; application rate 3.0 kg/ha
  damage: 100%
Setaria faberi; application rate 3.0 kg/ha
  damage: 95%

## O=C(O)c1cc(C2CC2)nc2onc(C3CCCC3)c12 [I.2.14]
Abutilon theophrasti; application rate 3.0 kg/ha
  pest or weed control at 3000 g/ha: 100%
Setaria faberi; application rate 3.0 kg/ha
  pest or weed control at 3000 g/ha: 90%

## Cc1noc2nc(C3CC3)cc(C(=O)OCc3nc4ccccc4o3)c12 [I.1.21]
Lolium multiflorum
  damage: 100%
Chenopodium album
  damage: 100%

## CCc1ccc(C(=O)COC(=O)c2cc(C3CC3)nc3onc(C)c23)s1 [I.1.49]
Agrostis stolonifera L.
  damage: 85%
Matricaria inodora
  damage: 98%

## Cc1noc2nc(C3CC3)cc(C(=O)OCc3nc(-c4cccs4)no3)c12 [I.1.10]
Agrostis stolonifera L.
  damage: 90%
Matricaria inodora
  damage: 85%

## O=C(O)c1cc(C2CC2)nc2onc(C3CC3)c12 [I.2.7]
Abutilon theophrasti; application rate 3.0 kg/ha
  pest or weed control at 3000 g/ha: 100%
Setaria faberi; application rate 3.0 kg/ha
  pest or weed control at 3000 g/ha: 100%

## Cc1noc2nc(C3CC3)cc(C(=O)OCC(=O)OC(C)(C)C)c12 [I.1.43]
Avena fatua; application rate 1.0 kg/ha
  damage: 90%
Alopecurus myosuroides
  damage: 80%

## O=C(O)c1cc(C2CC2)nc2onc(-c3ccc(Br)cc3)c12 [I.2.20]
Abutilon theophrasti; application rate 3.0 kg/ha
  damage: 100%
Setaria faberi; application rate 3.0 kg/ha
  damage: 95%

## O=C(O)c1cc(C2CC2)nc2onc(C(F)(F)F)c12 [I.2.10]
Abutilon theophrasti; application rate 3.0 kg/ha
  pest or weed control at 3000 g/ha: 90%
Setaria faberi; application rate 3.0 kg/ha
  pest or weed control at 3000 g/ha: 85%

## O=C(O)c1cc(C2CC2)nc2onc(C3CCC3)c12 [I.2.12]
Abutilon theophrasti; application rate 3.0 kg/ha
  pest or weed control at 3000 g/ha: 100%
Setaria faberi; application rate 3.0 kg/ha
  pest or weed control at 3000 g/ha: 90%

## COC(=O)c1cc(C2CC2)nc2onc(C)c12 [I.1.39]
Agrostis stolonifera L.
  damage: 90%
Avena fatua; application rate 2.0 kg/ha
  damage: 85%

## Cc1noc2nc(C3CC3)cc(C(=O)O)c12 [I.2.1]
Abutilon theophrasti; application rate 2.0 kg/ha
  pest or weed control at 2000 g/ha: 95%
Setaria faberi; application rate 2.0 kg/ha
  pest or weed control at 2000 g/ha: 100%

## CCCN(CC1CC1)C(=O)COC(=O)c1cc(C2CC2)nc2onc(C)c12 [I.1.35]
Avena fatua; application rate 3.0 kg/ha
  damage: 85%
Abutilon theophrasti; application rate 3.0 kg/ha
  damage: 90%

## O=C(O)c1cc(C2(F)CC2)nc2onc(-c3ccc(C(F)(F)F)cc3)c12 [I.7.59]
[1]
  damage: 100%
Polygonum convolvulus
  damage: 100%

## O=C(O)c1cc(C2CC2)nc2onc(-c3ccccc3OC(F)F)c12 [I.2.64]
[1]
  damage: 100%
Polygonum convolvulus
  damage: 80%

## CC(C)(C)Cc1noc2nc(C3(F)CC3)cc(C(=O)O)c12 [I.7.69]
[1]
  damage: 100%
Polygonum convolvulus
  damage: 100%

## O=C(O)c1cc(C2CC2)nc2onc(-c3ccc([N+](=O)[O-])cc3)c12 [I.2.65]
[1]
  damage: 100%
Polygonum convolvulus
  damage: 100%

## CCCCc1noc2nc(C3(F)CC3)cc(C(=O)O)c12 [I.7.66]
Polygonum convolvulus
  damage: 100%
Chenopodium album
  damage: 100%

## Cc1noc2nc(C3CC3)cc(C(=O)OCC(F)(F)F)c12 [I.1.67]
Avena fatua; application rate 3.0 kg/ha
  damage: 95%
Abutilon theophrasti; application rate 3.0 kg/ha
  damage: 100%

## Cc1ccsc1-c1noc2nc(C3CC3)cc(C(=O)O)c12 [I.2.69]
Polygonum convolvulus
  damage: 85%
Chenopodium album
  pest or weed control at 1000 g/ha: 95%

## Cc1noc2nc(C3CC3)cc(C(=O)OC(C)C(N)=O)c12 (stereo not drawn) [I.1.24]
Matricaria inodora
  damage: 100%

## O=C(O)c1cc(C2CC2)nc2onc(-c3ccc(-c4ccccc4)cc3)c12 [I.2.19]
Abutilon theophrasti; application rate 3.0 kg/ha
  damage: 100%
Setaria faberi; application rate 3.0 kg/ha
  damage: 85%

## O=C(O)c1cc(C2CC2)nc2onc(-c3ccncc3)c12 [I.2.16]
Abutilon theophrasti; application rate 3.0 kg/ha
  pest or weed control at 3000 g/ha: 85%
Setaria faberi; application rate 3.0 kg/ha
  pest or weed control at 3000 g/ha: 100%

## O=C(O)c1cc(C2(F)CC2)nc2onc(-c3ccc(Br)cc3)c12 [I.7.60]
[1]
  damage: 100%
Polygonum convolvulus
  damage: 100%

## CC(C)c1noc2nc(C3CC3)cc(C(=O)O)c12 [I.2.6]
Abutilon theophrasti; application rate 3.0 kg/ha
  pest or weed control at 3000 g/ha: 100%
Setaria faberi; application rate 3.0 kg/ha
  pest or weed control at 3000 g/ha: 95%

## O=C(O)c1cc(C2CC2)nc2onc(-c3ccco3)c12 [I.2.4]
Matricaria inodora
  damage: 98%

## O=C(O)c1cc(C2CC2)nc2onc(-c3ccccc3)c12 [I.2.5]
Abutilon theophrasti; application rate 3.0 kg/ha
  damage: 100%
Setaria faberi; application rate 3.0 kg/ha
  damage: 80%

## CCc1cc(C(=O)O)c2c(C3CC3)noc2n1 [I.7.17]
Abutilon theophrasti; application rate 3.0 kg/ha
  pest or weed control at 3000 g/ha: 100%
Setaria faberi; application rate 3.0 kg/ha
  pest or weed control at 3000 g/ha: 90%

## COc1ccc(-c2noc3nc(C4CC4)cc(C(=O)O)c23)cc1 [I.2.8]
Abutilon theophrasti; application rate 3.0 kg/ha
  damage: 100%
Setaria faberi; application rate 3.0 kg/ha
  damage: 80%

## COC(=O)c1cc(C2CC2)nc2onc(C(F)(F)F)c12 [I.4.6]
Setaria faberi; application rate 3.0 kg/ha
  pest or weed control at 3000 g/ha: 80%

## O=C(O)c1cc(C2CC2)nc2onc(-c3cccnc3)c12 [I.2.15]
Abutilon theophrasti; application rate 3.0 kg/ha
  pest or weed control at 3000 g/ha: 85%
Setaria faberi; application rate 3.0 kg/ha
  pest or weed control at 3000 g/ha: 100%

## O=C(O)c1cc(C2(F)CC2)nc2onc(C3(F)CC3)c12
Setaria faberi; application rate 3.0 kg/ha
  pest or weed control at 3000 g/ha: 98%

## Cc1noc2nc(C3(F)CC3)cc(C(=O)O)c12 [I.7.51]
Setaria faberi; application rate 3.0 kg/ha
  pest or weed control at 3000 g/ha: 90%

## COc1ccccc1-c1cc(C(=O)O)c2c(C(C)C)noc2n1 [I.7.7]
Setaria faberi; application rate 3.0 kg/ha
  damage: 85%

## O=C(O)c1cc(C2CC2)nc2onc(CCc3ccccc3)c12 [I.2.11]
Abutilon theophrasti; application rate 3.0 kg/ha
  damage: 100%
Setaria faberi; application rate 3.0 kg/ha
  damage: 100%
